Experimental data from patent publication US8158811B2, “Unsaturated fatty hydroxy acid derivatives and the dermocosmetologic use thereof” (Pierre Fabre Dermo-Cosmetique, priority 2005, dated 2012).

How the values were obtained:
[1] = system: membrane lipids, fibroblast line L929; assay: TBARS test, lipid peroxidation after H2O2/Fe2+/Fe3+; assay type: cell-based, murin; details: 0.02 ng/ml, pretreated 16 hours
Description: In order to evaluate membrane changes, we measured lipid peroxidation by in vitro assay of complexes between the products of lipid oxidation and thiobarbituric acid. These complexes are called TBARS (thiobarbituric acid reactive substances) and give the test its name: TBARS Test.
In order to mimic chemical oxidative stress, we treated a fibroblast line (L929) with a complex consisting of hydrogen peroxide (H2O2) and iron (Fe^2+/Fe^3+) thus reconstituting the Fenton reaction which is the source of oxygenated free radicals and particularly the hydroxyl radical (OH°) (D. A Vessey et al. 1992): H2O2+Fe^2+→OH°+OH^−+Fe^3+
The products were evaluated on a murin fibroblast line L929. Cells were pretreated with different concentrations of the product for 16 hours and were then stimulated with the H2O2/Fe^2+/Fe^3+ complex (200 μM−1 mM) for 1 hour. • Stock solutions: 100 mg/ml ethanol, 4° C. • Final solutions: 0.02 ng/ml.
Peroxidation of membrane lipids was analysed by measuring TBARS (Protocol ref. PLN°2, according to Morliere et al, 1991).
[…]. TBARS assays are therefore expressed in pmole/μg of protein. Proteins and TBARS are assayed in the intracellular medium.
Using the TBARS calculation in pmole/μg protein, we calculated the protective efficacy of various products against the oxidation of lipid membranes.
Four separate experiments were carried out. Several compounds were evaluated in the course of these experiments (the test only allows 10 molecules to be evaluated at one time). The compounds were evaluated several times and were chosen as a function of the results obtained in another test which also measured anti-radical activity (assay test for activated oxygen species).
The model used in this experiment (Fenton reaction) triggers considerable lipid peroxidation of the L929 fibroblasts. This massive release of the hydroxyl radical OH° thus generates oxidative stress in the cells, particularly in the membranes. However, in this type of oxidative reaction, the products resulting from lipid peroxidation are internalized in the cells and TBARS are therefore assayed in the intracellular medium.

[2] = system: ABCG1; assay: keratinocyte differentiation, real-time RT-PCR of ABCG1 transcripts; assay type: cell-based, human; details: NHK, 48 hours
Experimental: (§1) Normal human keratinocytes (NHK) proliferate and differentiate in vitro, forming stratified layers which mimic the basal organisation of the skin. Extracellular calcium concentrations in excess of 0.1 mM initiate a cascade of genome and non-genome events which take the keratinocytes from a proliferative phase towards a differentiation phase. Keratinocyte differentiation can then be evaluated by studying the expression of several markers such as keratins 1 and 10, transglutaminase 1, desaturase DES2, involucrine, FATP4 and ABCG1 transporters. We therefore evaluated the effect of certain hydroxyalcene carboxylic acids in an in vitro culture model.
(§2) Normal human keratinocytes are isolated from skin explants. They are cultured in KSFM medium (Gibco) with a low calcium content (0.1 mM) containing 25 μg/ml of BPE (bovine pituitary extract) and […] of EGF (epithelium growth factor). 24 hours after culturing, differentiation is triggered by the addition of calcium (final concentration 1.2 mM). The active ingredients are added or not at the same time as calcium at concentrations of 100 and 1 μg/ml in order to determine whether or not they have a potentialising effect on differentiation. Cells were then analysed 48 hours after the addition of calcium and these products.
(§3) Total RNA was extracted under cold conditions from keratinocytes.
(§4) After reverse transcription of mRNA into cDNA, PCRs were made up in 96 well plates (iCycler quantitative PCR apparatus, BioRad). Expression of transcripts of transglutaminase, desaturase (DES2), ABCG1 and FATP4 were standardized with respect to the expression of reference genes (GAPDH, UBC, HPRT).

[3] = system: desaturase DES2; assay: keratinocyte differentiation, real-time RT-PCR of DES2 transcripts; assay type: cell-based, human; details: NHK, 48 hours
Experimental: as §1, §2, §3, §4

[4] = system: transglutaminase 1 (TG1); assay: keratinocyte differentiation, real-time RT-PCR of transglutaminase 1 transcripts; assay type: cell-based, human; details: NHK, 48 hours
Experimental: as §1, §2, §3, §4

[5] = system: Interleukin 8; assay: release of Interleukin 8 by keratinocytes NHK stimulated with PMA + calcium ionophore A23187 (ELISA); assay type: cell-based, human; details: for % inhibition of IL-8 release: 3 μg/ml, keratinocytes, PMA + A23187 6 hours; for % Inhibition a 3 μg/ml: IL8 release, NHK, PMA + A23187
Experimental: In this study, carried out using 96 well plates, we evaluated the activity of hydroxyl alkine acids on the production of Interleukin 8 produced in the keratinocytes by phorbol ester PMA and calcium ionophore A23187.
A suspension of keratinocytes in supplemented KSFM was divided between 96 well plates (3.10^4 cells/wells) and incubated for 16 hours at 37° C. under an atmosphere of 5% CO2. The keratinocytes were then rinsed with PBS in order to eliminate non adhering cells then exposed to the products to be tested included in non supplemented KSFM (which could interfere with the assay).
The concentration tested in culture was 3 μg/ml. This was retained after a preliminary test to evaluate cytotoxicity (neutral red) and is not cytotoxic.
3 wells were used for each treatment. Cells were preincubated for 60 minutes with the products to be tested then stimulated, in parallel to negative controls without stimulant: Phorbol Myristate Acetate (PMA) 1 μm+Calcium ionophore (A23187) 0.1 μm.
Incubation for 6 hours at 37° C. in a humid air atmosphere containing 5% CO2.
The culture medium for each of the wells was recovered, centrifuged at 3000 rpm and stored at −80° C.
Cytokine assay: IL8 was assayed using the ELISA kit immunoenzyme method (immunotech).
The results are given as percentage activity/stimulated control.
The compounds according to the invention were evaluated in terms of anti-inflammatory activity on the release of Interleukin 8 by human keratinocytes NHK stimulated by phorbol ester PMA+calcium ionophore A23187.

O=C(O)C(F)=CCCCCCO (mixture of isomers) [n=4, R=H, Rn=H, R1=F]
% membrane lipid protection, Mean [1]: 36.54% | Induction Factor vs Control (CaCl2 1.2 mM) ABCG1 ([2]; 1 μg/ml): 2.6 | Induction Factor vs Control (CaCl2 1.2 mM) ABCG1 ([2]; 100 μg/ml): 2.6 | Induction Factor vs Control (CaCl2 1.2 mM) DES2 ([3]; 1 μg/ml): 2.2 | Induction Factor vs Control (CaCl2 1.2 mM) DES2 ([3]; 100 μg/ml): 3.2 | Induction Factor vs Control (CaCl2 1.2 mM) TG1 ([4]; 1 μg/ml): 1.6 | Induction Factor vs Control (CaCl2 1.2 mM) TG1 ([4]; 100 μg/ml): 1.7 | % inhibition of IL-8 release [5]: Non-active

O=C(O)C=CCCCCO [n=3, R=H, Rn=H, R1=H]
% membrane lipid protection, Mean [1]: 15.7% | Induction Factor vs Control (CaCl2 1.2 mM) ABCG1 ([2]; 1 μg/ml): 1.5 | Induction Factor vs Control (CaCl2 1.2 mM) ABCG1 ([2]; 100 μg/ml): 4.0 | Induction Factor vs Control (CaCl2 1.2 mM) DES2 ([3]; 1 μg/ml): 1.6 | Induction Factor vs Control (CaCl2 1.2 mM) DES2 ([3]; 100 μg/ml): 2.4 | Induction Factor vs Control (CaCl2 1.2 mM) TG1 ([4]; 1 μg/ml): 1.2 | Induction Factor vs Control (CaCl2 1.2 mM) TG1 ([4]; 100 μg/ml): 2.6 | % inhibition of IL-8 release [5]: 50%

O=C(O)C=CCCCCCO [n=4, R=H, Rn=H, R1=H]
% membrane lipid protection, Mean [1]: 37.88% | Induction Factor vs Control (CaCl2 1.2 mM) ABCG1 ([2]; 1 μg/ml): 1.2 | Induction Factor vs Control (CaCl2 1.2 mM) ABCG1 ([2]; 100 μg/ml): 2.5 | Induction Factor vs Control (CaCl2 1.2 mM) DES2 ([3]; 1 μg/ml): 1.0 | Induction Factor vs Control (CaCl2 1.2 mM) DES2 ([3]; 100 μg/ml): 2.2 | Induction Factor vs Control (CaCl2 1.2 mM) TG1 ([4]; 1 μg/ml): 1.2 | Induction Factor vs Control (CaCl2 1.2 mM) TG1 ([4]; 100 μg/ml): 1.7 | % inhibition of IL-8 release [5]: 15%

O=C(O)/C=C/CCCCCCCCCCO [n=9, R=H, Rn=H, R1=H, 13-hydroxy-tridec-2t-enoic acid]
% membrane lipid protection, Mean [1]: 8.72% | Induction Factor vs Control (CaCl2 1.2 mM) ABCG1 ([2]; 1 μg/ml): 1.5 | Induction Factor vs Control (CaCl2 1.2 mM) ABCG1 ([2]; 100 μg/ml): 13.8 | Induction Factor vs Control (CaCl2 1.2 mM) DES2 ([3]; 1 μg/ml): 1.8 | Induction Factor vs Control (CaCl2 1.2 mM) DES2 ([3]; 100 μg/ml): 51.7 | Induction Factor vs Control (CaCl2 1.2 mM) TG1 ([4]; 1 μg/ml): 1.4 | Induction Factor vs Control (CaCl2 1.2 mM) TG1 ([4]; 100 μg/ml): 14.8 | % inhibition of IL-8 release [5]: 16%

O=C(O)C(F)=CCCCCCCCCCCCO [n=10, R=H, Rn=H, R1=F, 14-hydroxy-tetradec-2-fluoro-2-enoic acid]
% membrane lipid protection, Mean [1]: 13.13% | Induction Factor vs Control (CaCl2 1.2 mM) ABCG1 ([2]; 1 μg/ml): 1.4 | Induction Factor vs Control (CaCl2 1.2 mM) ABCG1 ([2]; 100 μg/ml): 4.6 | Induction Factor vs Control (CaCl2 1.2 mM) DES2 ([3]; 1 μg/ml): 1.6 | Induction Factor vs Control (CaCl2 1.2 mM) DES2 ([3]; 100 μg/ml): 16.0 | Induction Factor vs Control (CaCl2 1.2 mM) TG1 ([4]; 1 μg/ml): 1.4 | Induction Factor vs Control (CaCl2 1.2 mM) TG1 ([4]; 100 μg/ml): 3.5 | % inhibition of IL-8 release [5]: 30%

O=C(O)/C=C/CCCCCCCCCCCO [n=10, R=H, Rn=H, R1=H, 14-hydroxy-tetradec-2t-enoic acid]
% membrane lipid protection, Mean [1]: 27.18% | Induction Factor vs Control (CaCl2 1.2 mM) ABCG1 ([2]; 1 μg/ml): 1.4 | Induction Factor vs Control (CaCl2 1.2 mM) ABCG1 ([2]; 100 μg/ml): 25.5 | Induction Factor vs Control (CaCl2 1.2 mM) DES2 ([3]; 1 μg/ml): 2.0 | Induction Factor vs Control (CaCl2 1.2 mM) DES2 ([3]; 100 μg/ml): 125.8 | Induction Factor vs Control (CaCl2 1.2 mM) TG1 ([4]; 1 μg/ml): 1.5 | Induction Factor vs Control (CaCl2 1.2 mM) TG1 ([4]; 100 μg/ml): 31.4 | % inhibition of IL-8 release [5]: 30%

O=C(O)C(F)=CCCCCCCCCCCCCCCO [n=13, R=H, Rn=H, R1=F, 17-hydroxy-heptadec-2-fluoro-2-enoic acid]
% membrane lipid protection, Mean [1]: 7.39% | Induction Factor vs Control (CaCl2 1.2 mM) ABCG1 ([2]; 1 μg/ml): 4.8 | Induction Factor vs Control (CaCl2 1.2 mM) DES2 ([3]; 1 μg/ml): 9.0 | Induction Factor vs Control (CaCl2 1.2 mM) TG1 ([4]; 1 μg/ml): 4.2 | % inhibition of IL-8 release [5]: 107% | % Inhibition a 3 μg/ml [5]: 107%

O=C(O)/C=C/CCCCCCCCCCCCCCO [n=13, R=H, Rn=H, R1=H, 17-hydroxy-heptadec-2t-enoic acid]
% membrane lipid protection, Mean [1]: 22.10% | Induction Factor vs Control (CaCl2 1.2 mM) ABCG1 ([2]; 1 μg/ml): 3.0 | Induction Factor vs Control (CaCl2 1.2 mM) DES2 ([3]; 1 μg/ml): 3.0 | Induction Factor vs Control (CaCl2 1.2 mM) TG1 ([4]; 1 μg/ml): 1.4 | % inhibition of IL-8 release [5]: 62% | % Inhibition a 3 μg/ml [5]: 62%
